The values below are quoted from earlier work in patent US20110178470A1, “PHARMACEUTICAL COMPOSITIONS COMPRISING BORONIC ACID COMPOUNDS” (DR. REDDY'S LABORATORIES LTD., priority 2008, published 2011).

For this data set the following is noted: as the monomeric boronic acid; pH range of 2 to 6.5.

As to `CC(C)C[C@H](NC(=O)[C@H](Cc1ccccc1)NC(=O)c1cnccn1)B(O)O` [bortezomib, [(1R)-3-methyl-1-[[(2S)-1-oxo-3-phenyl-2-[(pyrazinylcarbonyl)amino]propyl]amino]butyl]boronic acid], the solubility in water was 3300 to 3800 µg/mL.
